Laboratory results as given in paper PMC3145970, “Specific CLK Inhibitors from a Novel Chemotype for Regulation of Alternative Splicing” (Chemistry & Biology, 2011).
Like-named read-outs stand apart in the source and are kept apart here.

What was measured:
Assay in all cases: Thermal stability shift assay
Type in all cases: binding
MAP2K6 = molecular target: T1, MAP2K6 (Homo sapiens, UniProt P52564); conditions: read-out: Tm shift MAP2K6
T1 construct: purchased in-house (SGC Oxford thermal shift panel)
T1 sequence (P52564 1-334): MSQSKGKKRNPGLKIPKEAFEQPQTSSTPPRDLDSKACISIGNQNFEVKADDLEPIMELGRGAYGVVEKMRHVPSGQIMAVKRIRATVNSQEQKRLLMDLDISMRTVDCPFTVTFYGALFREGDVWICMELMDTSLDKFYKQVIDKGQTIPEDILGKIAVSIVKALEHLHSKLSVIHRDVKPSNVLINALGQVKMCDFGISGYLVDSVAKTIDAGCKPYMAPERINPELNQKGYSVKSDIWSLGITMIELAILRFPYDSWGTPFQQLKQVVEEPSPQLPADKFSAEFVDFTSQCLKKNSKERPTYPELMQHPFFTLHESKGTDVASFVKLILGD
Description: (§1) Thermal denaturation experiments were carried out in an Mx3005p real-time PCR machine (Agilent) using a protein concentration of 2 μM and an inhibitor concentration of 10 μM. Samples were buffered in 10 mM HEPES (pH 7.5), 500 mM NaCl and a 1:1000 dilution of SyproOrange (Invitrogen). The assay and data evaluation were carried out as described ([Bullock et al., 2005])

VRK1 = molecular target: T2, VRK1 (Homo sapiens, UniProt Q99986); conditions: read-out: Tm shift VRK1
T2 sequence (Q99986 1-396): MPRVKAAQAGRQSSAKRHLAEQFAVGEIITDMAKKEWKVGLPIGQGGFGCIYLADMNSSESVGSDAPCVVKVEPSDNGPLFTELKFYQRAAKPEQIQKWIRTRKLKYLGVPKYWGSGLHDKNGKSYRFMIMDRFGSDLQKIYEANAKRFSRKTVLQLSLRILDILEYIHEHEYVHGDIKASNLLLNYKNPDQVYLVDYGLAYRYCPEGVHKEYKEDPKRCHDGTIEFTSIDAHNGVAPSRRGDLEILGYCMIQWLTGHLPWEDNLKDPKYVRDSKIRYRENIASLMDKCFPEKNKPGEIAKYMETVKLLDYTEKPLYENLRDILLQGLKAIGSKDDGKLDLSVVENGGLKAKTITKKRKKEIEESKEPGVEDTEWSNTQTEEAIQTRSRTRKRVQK
Description: as §1

AAK1 = AAK1 (Homo sapiens, UniProt Q2M2I8); conditions: read-out: Tm shift AAK1
Description: as §1

YANK1 = YANK1 (Homo sapiens, UniProt Q8WU08); conditions: read-out: Tm shift YANK1
Description: as §1

ALK4 = molecular target: T3, ALK4 (Homo sapiens, UniProt P36896); conditions: read-out: Tm shift ALK4
T3 sequence (P36896 24-505): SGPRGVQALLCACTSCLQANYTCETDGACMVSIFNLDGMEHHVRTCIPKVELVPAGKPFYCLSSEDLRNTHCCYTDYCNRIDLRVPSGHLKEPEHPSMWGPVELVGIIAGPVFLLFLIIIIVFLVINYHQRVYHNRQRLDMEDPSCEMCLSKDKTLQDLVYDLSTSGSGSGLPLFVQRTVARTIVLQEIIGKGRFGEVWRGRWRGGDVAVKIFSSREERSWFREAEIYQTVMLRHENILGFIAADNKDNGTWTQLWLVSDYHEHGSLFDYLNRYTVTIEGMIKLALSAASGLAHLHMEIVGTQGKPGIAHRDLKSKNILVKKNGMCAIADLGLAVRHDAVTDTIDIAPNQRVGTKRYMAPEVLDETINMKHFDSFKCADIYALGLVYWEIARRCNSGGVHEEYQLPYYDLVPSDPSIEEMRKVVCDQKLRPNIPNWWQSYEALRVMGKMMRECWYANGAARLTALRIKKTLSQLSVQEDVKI
Description: as §1

NEK7 = molecular target: T4, NEK7 (Homo sapiens, UniProt Q8TDX7); conditions: read-out: Tm shift NEK7
T4 construct: purchased in-house (SGC Oxford thermal shift panel)
Description: as §1

LOK = molecular target: T5, LOK (Homo sapiens, UniProt O94804); conditions: read-out: Tm shift LOK
T5 construct: purchased in-house (SGC Oxford thermal shift panel)
Description: as §1

ACTR2 = ACTR2 (Homo sapiens, UniProt P27037); conditions: read-out: Tm shift ACTR2
Description: as §1

CHK2 = CHK2 (Homo sapiens, UniProt O96017); conditions: read-out: Tm shift CHK2
Description: as §1

OSR1 = molecular target: T6, OSR1 (Homo sapiens, UniProt O95747); conditions: read-out: Tm shift OSR1
T6 construct: purchased in-house (SGC Oxford thermal shift panel)
Description: as §1

STK33 = STK33 (Homo sapiens, UniProt Q9BYT3); conditions: read-out: Tm shift STK33
Description: as §1

eEF2K = molecular target: T7, eEF2K (Homo sapiens, UniProt O00418); conditions: read-out: Tm shift eEF2K
T7 construct: purchased in-house (SGC Oxford thermal shift panel)
T7 sequence (O00418 1-725): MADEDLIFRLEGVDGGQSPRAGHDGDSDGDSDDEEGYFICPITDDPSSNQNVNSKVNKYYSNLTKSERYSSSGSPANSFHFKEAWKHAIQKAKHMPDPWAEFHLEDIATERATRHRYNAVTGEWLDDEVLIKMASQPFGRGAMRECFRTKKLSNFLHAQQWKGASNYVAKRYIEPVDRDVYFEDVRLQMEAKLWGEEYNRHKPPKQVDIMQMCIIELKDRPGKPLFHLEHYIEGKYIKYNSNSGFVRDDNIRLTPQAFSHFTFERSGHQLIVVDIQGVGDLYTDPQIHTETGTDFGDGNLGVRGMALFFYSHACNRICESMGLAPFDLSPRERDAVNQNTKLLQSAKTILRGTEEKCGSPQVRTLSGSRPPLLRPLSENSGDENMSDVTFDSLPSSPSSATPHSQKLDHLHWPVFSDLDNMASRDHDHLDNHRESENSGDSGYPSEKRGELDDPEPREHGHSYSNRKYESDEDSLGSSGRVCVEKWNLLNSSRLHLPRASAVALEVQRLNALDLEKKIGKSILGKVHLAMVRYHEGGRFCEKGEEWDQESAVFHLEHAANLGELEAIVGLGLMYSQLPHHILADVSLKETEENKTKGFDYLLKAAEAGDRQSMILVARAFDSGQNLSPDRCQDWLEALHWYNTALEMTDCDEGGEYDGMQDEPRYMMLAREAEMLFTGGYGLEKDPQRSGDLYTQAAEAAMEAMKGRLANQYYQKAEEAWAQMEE
Description: as §1

NDR2 = molecular target: T8, NDR2 (Homo sapiens, UniProt Q9Y2H1); conditions: read-out: Tm shift NDR2
T8 construct: purchased in-house (SGC Oxford thermal shift panel)
Description: as §1

LYN = molecular target: T9, LYN (Homo sapiens, UniProt P07948); conditions: read-out: Tm shift LYN
T9 construct: purchased in-house (SGC Oxford thermal shift panel)
Description: as §1

CHK2, sequence (O96017 whole entry): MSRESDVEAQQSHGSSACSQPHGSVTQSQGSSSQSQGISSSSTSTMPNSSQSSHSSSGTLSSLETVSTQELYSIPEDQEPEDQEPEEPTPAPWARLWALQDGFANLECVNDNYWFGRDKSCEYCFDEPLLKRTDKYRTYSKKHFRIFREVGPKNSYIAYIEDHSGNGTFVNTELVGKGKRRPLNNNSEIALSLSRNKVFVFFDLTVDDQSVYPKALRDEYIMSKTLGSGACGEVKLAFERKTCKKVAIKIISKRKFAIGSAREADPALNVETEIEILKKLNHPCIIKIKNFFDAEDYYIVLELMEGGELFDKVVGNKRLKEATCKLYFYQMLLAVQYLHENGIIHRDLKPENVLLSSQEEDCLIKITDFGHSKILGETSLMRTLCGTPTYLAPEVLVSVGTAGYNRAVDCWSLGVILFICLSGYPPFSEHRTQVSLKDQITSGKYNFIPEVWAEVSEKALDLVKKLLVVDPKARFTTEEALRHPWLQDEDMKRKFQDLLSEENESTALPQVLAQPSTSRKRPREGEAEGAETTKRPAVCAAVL
ACTR2, sequence (P27037 20-513): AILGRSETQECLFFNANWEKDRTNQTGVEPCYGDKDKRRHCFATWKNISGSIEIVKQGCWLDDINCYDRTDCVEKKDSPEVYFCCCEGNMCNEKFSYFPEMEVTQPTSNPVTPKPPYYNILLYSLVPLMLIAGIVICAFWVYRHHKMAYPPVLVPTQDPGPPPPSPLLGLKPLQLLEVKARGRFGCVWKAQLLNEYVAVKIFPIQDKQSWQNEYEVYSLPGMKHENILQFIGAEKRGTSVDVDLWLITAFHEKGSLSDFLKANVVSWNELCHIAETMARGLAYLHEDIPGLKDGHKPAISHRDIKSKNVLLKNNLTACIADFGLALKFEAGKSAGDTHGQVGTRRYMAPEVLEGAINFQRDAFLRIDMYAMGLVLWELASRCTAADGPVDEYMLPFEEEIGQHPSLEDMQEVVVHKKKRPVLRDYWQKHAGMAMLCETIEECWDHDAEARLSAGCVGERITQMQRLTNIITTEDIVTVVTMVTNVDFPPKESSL
T5 sequence (O94804 whole entry): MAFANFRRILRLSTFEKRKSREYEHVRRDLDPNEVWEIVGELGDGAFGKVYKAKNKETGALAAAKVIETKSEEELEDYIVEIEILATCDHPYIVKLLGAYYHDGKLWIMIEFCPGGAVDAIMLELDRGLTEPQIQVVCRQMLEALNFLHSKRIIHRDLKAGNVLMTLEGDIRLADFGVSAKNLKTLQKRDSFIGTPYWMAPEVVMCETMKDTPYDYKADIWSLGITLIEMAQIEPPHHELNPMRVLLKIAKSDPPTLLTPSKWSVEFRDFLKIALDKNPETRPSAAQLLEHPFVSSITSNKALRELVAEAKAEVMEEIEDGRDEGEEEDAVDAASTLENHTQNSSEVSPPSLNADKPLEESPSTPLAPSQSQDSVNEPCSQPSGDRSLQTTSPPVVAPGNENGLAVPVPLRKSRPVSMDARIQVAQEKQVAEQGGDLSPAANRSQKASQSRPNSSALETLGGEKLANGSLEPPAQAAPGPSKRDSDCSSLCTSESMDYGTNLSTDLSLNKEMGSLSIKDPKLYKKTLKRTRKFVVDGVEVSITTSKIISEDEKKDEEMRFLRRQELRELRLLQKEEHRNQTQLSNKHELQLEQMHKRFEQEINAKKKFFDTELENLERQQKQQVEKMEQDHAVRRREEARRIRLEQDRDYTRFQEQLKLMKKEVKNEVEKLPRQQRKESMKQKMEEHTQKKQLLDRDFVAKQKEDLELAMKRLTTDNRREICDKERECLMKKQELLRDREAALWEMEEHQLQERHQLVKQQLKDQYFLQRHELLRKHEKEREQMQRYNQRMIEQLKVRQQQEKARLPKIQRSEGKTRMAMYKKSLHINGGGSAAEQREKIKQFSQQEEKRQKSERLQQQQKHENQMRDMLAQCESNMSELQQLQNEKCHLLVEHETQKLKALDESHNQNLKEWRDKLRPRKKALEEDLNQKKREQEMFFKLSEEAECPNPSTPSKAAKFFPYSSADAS
STK33, sequence (Q9BYT3 whole entry): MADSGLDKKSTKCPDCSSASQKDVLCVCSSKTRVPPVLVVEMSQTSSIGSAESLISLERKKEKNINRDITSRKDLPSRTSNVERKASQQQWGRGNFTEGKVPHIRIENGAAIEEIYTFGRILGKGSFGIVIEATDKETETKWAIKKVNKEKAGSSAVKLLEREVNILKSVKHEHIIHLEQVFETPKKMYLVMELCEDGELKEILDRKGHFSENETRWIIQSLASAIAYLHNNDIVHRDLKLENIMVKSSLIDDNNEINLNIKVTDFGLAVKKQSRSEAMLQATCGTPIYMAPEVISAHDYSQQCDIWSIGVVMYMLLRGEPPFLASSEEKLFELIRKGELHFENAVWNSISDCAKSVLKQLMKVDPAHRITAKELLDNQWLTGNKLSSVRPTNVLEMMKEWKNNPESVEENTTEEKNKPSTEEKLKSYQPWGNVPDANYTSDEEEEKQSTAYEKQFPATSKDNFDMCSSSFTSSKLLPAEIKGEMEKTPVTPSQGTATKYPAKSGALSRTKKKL
AAK1, sequence (Q2M2I8 whole entry): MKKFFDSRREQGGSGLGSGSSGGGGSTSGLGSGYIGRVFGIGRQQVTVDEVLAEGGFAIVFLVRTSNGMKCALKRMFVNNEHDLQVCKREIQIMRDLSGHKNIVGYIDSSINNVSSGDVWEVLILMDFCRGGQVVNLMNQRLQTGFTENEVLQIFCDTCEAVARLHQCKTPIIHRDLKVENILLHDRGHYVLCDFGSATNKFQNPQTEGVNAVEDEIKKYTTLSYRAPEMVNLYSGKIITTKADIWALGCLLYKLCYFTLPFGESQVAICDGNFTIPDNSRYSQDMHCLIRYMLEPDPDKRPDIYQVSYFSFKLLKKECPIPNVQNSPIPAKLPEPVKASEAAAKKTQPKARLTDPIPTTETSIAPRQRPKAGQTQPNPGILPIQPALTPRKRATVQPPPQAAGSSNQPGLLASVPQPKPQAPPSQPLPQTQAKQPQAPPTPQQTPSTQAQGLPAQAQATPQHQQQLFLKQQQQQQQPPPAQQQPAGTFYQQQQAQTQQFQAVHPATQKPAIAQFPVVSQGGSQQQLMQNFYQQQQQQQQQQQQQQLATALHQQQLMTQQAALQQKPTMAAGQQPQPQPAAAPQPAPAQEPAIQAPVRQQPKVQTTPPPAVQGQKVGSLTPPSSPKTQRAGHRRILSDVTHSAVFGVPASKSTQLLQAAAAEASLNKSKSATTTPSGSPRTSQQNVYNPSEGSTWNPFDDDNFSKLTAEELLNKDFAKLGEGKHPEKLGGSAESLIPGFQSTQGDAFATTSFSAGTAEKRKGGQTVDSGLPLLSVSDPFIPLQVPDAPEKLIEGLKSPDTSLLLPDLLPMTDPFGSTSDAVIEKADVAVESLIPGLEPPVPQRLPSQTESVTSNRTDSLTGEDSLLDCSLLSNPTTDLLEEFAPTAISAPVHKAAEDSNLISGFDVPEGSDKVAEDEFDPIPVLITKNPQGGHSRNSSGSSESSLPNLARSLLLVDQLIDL
T8 sequence (Q9Y2H1 whole entry): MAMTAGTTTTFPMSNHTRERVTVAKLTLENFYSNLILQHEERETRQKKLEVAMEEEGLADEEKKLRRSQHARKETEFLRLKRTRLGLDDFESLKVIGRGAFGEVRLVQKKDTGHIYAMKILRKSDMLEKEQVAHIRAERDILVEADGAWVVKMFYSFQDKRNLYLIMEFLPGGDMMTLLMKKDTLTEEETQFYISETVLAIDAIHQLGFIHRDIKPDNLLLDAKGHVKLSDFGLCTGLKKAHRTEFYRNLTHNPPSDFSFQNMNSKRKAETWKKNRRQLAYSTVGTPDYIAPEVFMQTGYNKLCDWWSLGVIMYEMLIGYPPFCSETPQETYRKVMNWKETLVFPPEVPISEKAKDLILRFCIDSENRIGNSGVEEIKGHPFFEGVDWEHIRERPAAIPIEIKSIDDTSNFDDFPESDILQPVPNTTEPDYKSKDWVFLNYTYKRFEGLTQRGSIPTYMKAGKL
T9 sequence (P07948 whole entry): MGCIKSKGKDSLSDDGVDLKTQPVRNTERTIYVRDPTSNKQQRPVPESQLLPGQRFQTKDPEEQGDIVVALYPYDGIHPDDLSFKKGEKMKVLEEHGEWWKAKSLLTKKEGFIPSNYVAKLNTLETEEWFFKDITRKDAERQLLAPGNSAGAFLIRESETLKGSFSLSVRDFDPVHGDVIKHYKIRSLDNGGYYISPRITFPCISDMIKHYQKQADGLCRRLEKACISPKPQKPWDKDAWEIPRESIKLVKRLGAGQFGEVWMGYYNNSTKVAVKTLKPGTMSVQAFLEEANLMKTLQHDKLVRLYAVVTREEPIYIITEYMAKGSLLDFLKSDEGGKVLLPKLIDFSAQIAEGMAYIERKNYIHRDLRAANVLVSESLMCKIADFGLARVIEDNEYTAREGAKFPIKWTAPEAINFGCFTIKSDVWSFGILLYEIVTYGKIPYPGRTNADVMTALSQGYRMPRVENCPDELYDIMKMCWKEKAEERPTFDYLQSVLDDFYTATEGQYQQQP
T6 sequence (O95747 whole entry): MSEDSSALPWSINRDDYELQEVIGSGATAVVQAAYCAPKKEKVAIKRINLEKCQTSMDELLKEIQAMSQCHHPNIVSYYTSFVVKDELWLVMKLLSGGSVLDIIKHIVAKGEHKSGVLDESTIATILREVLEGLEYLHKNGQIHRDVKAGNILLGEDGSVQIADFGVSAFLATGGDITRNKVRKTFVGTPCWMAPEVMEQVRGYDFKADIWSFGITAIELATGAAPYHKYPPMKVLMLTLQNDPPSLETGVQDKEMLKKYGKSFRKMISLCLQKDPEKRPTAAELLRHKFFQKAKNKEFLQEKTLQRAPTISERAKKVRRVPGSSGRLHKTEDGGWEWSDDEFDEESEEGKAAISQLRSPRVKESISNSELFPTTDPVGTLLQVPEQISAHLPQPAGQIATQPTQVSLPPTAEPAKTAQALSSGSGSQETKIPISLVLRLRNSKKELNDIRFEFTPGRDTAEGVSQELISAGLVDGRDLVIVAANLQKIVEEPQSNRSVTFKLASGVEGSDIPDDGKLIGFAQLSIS

ΔTm at 10 µM (MAP2K6; inhibitor 10 μM) | ΔTm at 10 µM (VRK1; inhibitor 10 μM) | ΔTm at 10 µM (AAK1; inhibitor 10 μM) | ΔTm at 10 µM (YANK1; inhibitor 10 μM) | ΔTm at 10 µM (ALK4; inhibitor 10 μM) | ΔTm at 10 µM (NEK7; inhibitor 10 μM) | ΔTm at 10 µM (LOK; inhibitor 10 μM) | ΔTm at 10 µM (ACTR2; inhibitor 10 μM) | ΔTm at 10 µM (CHK2; inhibitor 10 μM) | ΔTm at 10 µM (OSR1; inhibitor 10 μM) | ΔTm at 10 µM (STK33; inhibitor 10 μM) | ΔTm at 10 µM (eEF2K; inhibitor 10 μM) | ΔTm at 10 µM (NDR2; inhibitor 10 μM) | ΔTm at 10 µM (LYN; inhibitor 10 μM) | SMILES | ΔTm at 10 µM (MAP2K6) | ΔTm at 10 µM (VRK1) | ΔTm at 10 µM (AAK1) | ΔTm at 10 µM (YANK1) | ΔTm at 10 µM (ALK4) | ΔTm at 10 µM (NEK7) | also measured
 |  |  |  |  |  |  |  |  |  |  |  |  |  | CCOC(=O)c1c(C(C#N)=CN)c2ccc(Cl)c(Cl)c2n1C (mixture of isomers) [KH-CB20, (E/Z)-Ethyl 3-(2-Amino-1-Cyanovinyl)-6,7-Dichloro-1-Methyl-1H-Indole-2-Carboxylate] | 0.6 °C | 0.2 °C | 1.3 °C | -0.3 °C | 1.4 °C | 0.1 °C | ΔTm at 10 µM (LOK): 3 °C; ΔTm at 10 µM (ACTR2): 0.4 °C; ΔTm at 10 µM (CHK2): 1 °C; ΔTm at 10 µM (OSR1): 0.3 °C; ΔTm at 10 µM (STK33): 0.8 °C; ΔTm at 10 µM (eEF2K): -0.1 °C; ΔTm at 10 µM (NDR2): -0.3 °C; ΔTm at 10 µM (LYN): 0 °C
0.4 °C | 0.2 °C | 0.3 °C | 0 °C | 4 °C | -0.7 °C | -1.1 °C | 0.6 °C | 0.3 °C | 0 °C | 0.7 °C | -0.4 °C | -0.1 °C | 0 °C | CCOC(=O)c1c(C(C#N)=CN(C)C)c2ccc(Cl)c(Cl)c2n1C (mixture of isomers) [compound 2, (E/Z)-Ethyl 6,7-Dichloro-3-[1-Cyano-2-(Dimethylamino)Vinyl]-1-Methyl-1H-Indole-2-Carboxylate] |  |  |  |  |  |  | 
 |  |  |  |  |  |  |  |  |  |  |  |  |  | CCOC(=O)c1c(/C(C#N)=C\N)c2ccc(Cl)c(Cl)c2n1C [KH-CB19, (E)-Ethyl 3-(2-Amino-1-Cyanovinyl)-6,7-Dichloro-1-Methyl-1H-Indole-2-Carboxylate] | 0.5 °C | 0 °C | 1.3 °C | -0.2 °C | 1.2 °C | 0 °C | ΔTm at 10 µM (LOK): -0.8 °C; ΔTm at 10 µM (ACTR2): 0.2 °C; ΔTm at 10 µM (CHK2): 0.4 °C; ΔTm at 10 µM (OSR1): 0.3 °C; ΔTm at 10 µM (STK33): 0.3 °C; ΔTm at 10 µM (eEF2K): -0.1 °C; ΔTm at 10 µM (NDR2): -0.2 °C; ΔTm at 10 µM (LYN): 0.2 °C
0.1 °C | -0.4 °C | 1.4 °C | 0.3 °C | 0.9 °C | 0.6 °C | -0.7 °C | 0.8 °C | 0.5 °C | 0.3 °C | 1.1 °C | 0.3 °C | 0 °C | 0.2 °C | Cn1c2c(Cl)c(Cl)ccc2c2c(C#N)c[nH]c(=O)c21 [compound 3, 7,8-Dichloro-9-Methyl-1-Oxo-2,9-Dihydro-1H-Pyrido[3,4-b]Indole-4-Carbonitrile] |  |  |  |  |  |  | 

SMILES | ΔTm at 10 µM (MAP2K6; inhibitor 10 μM) | ΔTm at 10 µM (VRK1; inhibitor 10 μM) | ΔTm at 10 µM (AAK1; inhibitor 10 μM) | ΔTm at 10 µM (YANK1; inhibitor 10 μM) | ΔTm at 10 µM (ALK4; inhibitor 10 μM) | ΔTm at 10 µM (NEK7; inhibitor 10 μM) | ΔTm at 10 µM (LOK; inhibitor 10 μM) | ΔTm at 10 µM (ACTR2; inhibitor 10 μM) | ΔTm at 10 µM (CHK2; inhibitor 10 μM) | ΔTm at 10 µM (OSR1; inhibitor 10 μM) | ΔTm at 10 µM (STK33; inhibitor 10 μM) | ΔTm at 10 µM (eEF2K; inhibitor 10 μM) | ΔTm at 10 µM (NDR2; inhibitor 10 μM) | ΔTm at 10 µM (LYN; inhibitor 10 μM) | ΔTm at 10 µM (MAP2K6) | ΔTm at 10 µM (VRK1) | ΔTm at 10 µM (AAK1) | ΔTm at 10 µM (YANK1) | ΔTm at 10 µM (ALK4) | ΔTm at 10 µM (NEK7) | also measured
NC1=NC(=O)/C(=C2\CCNC(=O)c3[nH]c(Br)cc32)N1 [Hymenialdisine, hymenialdisine, reference compound] | 0.6 °C | 2 °C | 2.7 °C | 0 °C | 4.9 °C | 0.6 °C | 4.2 °C | 0.7 °C | 5.7 °C | 0.5 °C | 3.9 °C | -0.1 °C | 0.9 °C | 0.3 °C |  |  |  |  |  |  | 
